Measurements published in ChEMBL document CHEMBL3351699, “Diarylthiazole: an antimycobacterial scaffold potentially targeting PrrB-PrrA two-component system” (J Med Chem, 2014).
Values after ≈ are worked out from the molar mass of the structure shown. Active and inactive are the calls of the source. The rule behind the calls is not given here.

Columns and labels:
Format in all cases: functional
[1] = tested on: Mycobacterium tuberculosis; assay: Antimicrobial activity against clinical isolate Isoniazid-resistant Mycobacterium tuberculosis assessed as growth inhibition after 7 days by turbidometry; conditions: 168 h
[2] = tested on: Mycobacterium tuberculosis; assay: Antimicrobial activity against clinical isolate Rifampin-resistant Mycobacterium tuberculosis assessed as growth inhibition after 7 days by turbidometry; conditions: 168 h
[3] = tested on: Mycobacterium tuberculosis; assay: Antimicrobial activity against Mycobacterium tuberculosis H37Rv over-expressing InhA cells assessed as upshift of MIC relative to wild type
[4] = tested on: Mycobacterium tuberculosis; assay: Antimicrobial activity against second mutant generation Mycobacterium tuberculosis 1024_8.12 assessed as fold shift in MIC relative to parent strain
[5] = tested on: Mycobacterium tuberculosis; assay: Antimicrobial activity against second mutant generation Mycobacterium tuberculosis 1024_16.6 assessed as fold shift in MIC relative to parent strain
[6] = tested on: Mycobacterium tuberculosis; assay: Antimicrobial activity against second mutant generation Mycobacterium tuberculosis 1024_18 assessed as fold shift in MIC relative to parent strain
[7] = tested on: Mycobacterium tuberculosis; assay: Antimicrobial activity against first mutant generation Mycobacterium tuberculosis 1024_18 assessed as fold shift in MIC relative to parent strain
[8] = tested on: Mycobacterium tuberculosis; assay: Antimicrobial activity against first mutant generation Mycobacterium tuberculosis 1024_1 assessed as fold shift in MIC relative to parent strain
[9] = tested on: Mycobacterium tuberculosis; assay: Antimicrobial activity against second mutant generation Mycobacterium tuberculosis 1024_16.5 assessed as fold shift in MIC relative to parent strain

Row | Compound | MIC80 [1] | MIC80 [2] | Activity [3] | fold change (FC) [3] | Ratio [4] | Ratio [5] | Ratio [6] | Ratio [7] | Ratio [8] | Ratio [9]
1 | CCCc1cc(-c2nc(-c3cccc(OC)c3)cs2)ccn1 | 1 µg/mL (≈ 3.22 µM) | 0.5 µg/mL (≈ 1.61 µM) | – | – | – | – | – | – | – | –
2 | CCCc1cc(-c2nc(-c3ccccn3)cs2)ccn1 | – | – | Active | – | – | – | – | – | – | –
3 | NNC(=O)c1ccncc1 [ISONIAZID] | > 16 µg/mL | 0.03 µg/mL (≈ 0.219 µM) | – | 8 | 1 | 1 | 1 | 1 | 1 | 1
4 | CCCc1cc(-c2csc(-c3ccnc(CCC)c3)n2)ccn1 | – | – | Active | – | – | – | – | – | – | –
5 | Oc1cc(Cl)ccc1Oc1ccc(Cl)cc1Cl [TRICLOSAN] | – | – | – | 8 | – | – | – | – | – | –
6 | CCCc1cc(-c2nc(-c3ccnc(OCC)c3)cs2)ccn1 | – | – | Active | – | – | – | – | – | – | –
7 | COc1nc2ccc(Br)cc2cc1[C@@H](c1ccccc1)[C@@](O)(CCN(C)C)c1cccc2ccccc12 [BEDAQUILINE] | – | – | – | – | 0.25 | 0.5 | 0.25 | 0.5 | 1 | 0.5
8 | CCc1cc(C(N)=S)ccn1 [ETHIONAMIDE] | – | – | – | 8 | – | – | – | – | – | –
9 | CO[C@H]1/C=C/O[C@@]2(C)Oc3c(C)c(O)c4c(O)c(c(/C=N/N5CCN(C)CC5)c(O)c4c3C2=O)NC(=O)/C(C)=C\C=C\[C@H](C)[C@H](O)[C@@H](C)[C@@H](O)[C@@H](C)[C@H](OC(C)=O)[C@@H]1C [RIFAMPIN] | 0.003 µg/mL (≈ 0.00365 µM) | > 16 µg/mL | – | – | – | – | – | 0.5 | 0.5 | –
10 | CCCc1cc(-c2nc(-c3ccc(OCC4CC4)cc3)cs2)ccn1 | 1 µg/mL (≈ 2.85 µM) | 0.13 µg/mL (≈ 0.371 µM) | – | – | – | – | – | – | – | –
11 | CCCc1cc(-c2nc(-c3ccncc3)cs2)ccn1 | – | – | Active | – | 8 | 16 | 8 | 8 | 16 | 16
12 | CC(=O)NC[C@H]1CN(c2ccc(N3CCOCC3)c(F)c2)C(=O)O1 [LINEZOLID] | – | – | – | – | – | – | – | 1 | 1 | –
13 | CCCc1cc(-c2nc(-c3ccc(OCCN4CCOCC4)cc3)cs2)ccn1 | 1 µg/mL (≈ 2.44 µM) | 0.5 µg/mL (≈ 1.22 µM) | – | – | 8 | >8 | 8 | – | – | 4
14 | COc1c(N2C[C@@H]3CCCN[C@@H]3C2)c(F)cc2c(=O)c(C(=O)O)cn(C3CC3)c12 [MOXIFLOXACIN] | – | – | – | – | 1 | 1 | 0.5 | 1 | 1 | 1
15 | CCCc1cc(-c2nc(-c3ccc(NS(C)(=O)=O)cc3)cs2)ccn1 | 0.5 µg/mL (≈ 1.34 µM) | 0.13 µg/mL (≈ 0.348 µM) | – | – | – | – | – | – | – | –
16 | CCCc1cc(-c2nc(-c3ccc(C)cc3)cs2)ccn1 [FATOSTATIN] | – | – | Active | – | 16 | >32 | 16 | 16 | 8 | 16
